According to patent publication US5840910A, “Pyridine derivatives having anti-ulcerative activity” (Esai Co., Ltd., priority 1986, dated 1998):
Entries after “also recorded” stand apart in the source; their conditions may differ. Where a name gives a salt, the structure may show the parent alone. Blank lines part the entries; values can stand above or below the molecule they belong to.

Tests used:
H^+ -K^+ ATPase = biological target: T1, H^+ -K^+ ATPase (Sus scrofa, UniProt P19156); assay: Inhibition against the activity of H^+ -K^+ ATPase; assay type: biochemical, pig; conditions: for IC50: 40 mM Tris-HCl pH 7.40, 37° C., 30 minutes incubation
T1 construct: Prepared from the fundic-glands of a fresh mucous membrane of a pig stomach; from tissue; host or cells: pig stomach, fundic glands of fresh mucous membrane (modified method of Saccomani et al., 1977)
T1 sequence (P19156 2-1034 limits assumed): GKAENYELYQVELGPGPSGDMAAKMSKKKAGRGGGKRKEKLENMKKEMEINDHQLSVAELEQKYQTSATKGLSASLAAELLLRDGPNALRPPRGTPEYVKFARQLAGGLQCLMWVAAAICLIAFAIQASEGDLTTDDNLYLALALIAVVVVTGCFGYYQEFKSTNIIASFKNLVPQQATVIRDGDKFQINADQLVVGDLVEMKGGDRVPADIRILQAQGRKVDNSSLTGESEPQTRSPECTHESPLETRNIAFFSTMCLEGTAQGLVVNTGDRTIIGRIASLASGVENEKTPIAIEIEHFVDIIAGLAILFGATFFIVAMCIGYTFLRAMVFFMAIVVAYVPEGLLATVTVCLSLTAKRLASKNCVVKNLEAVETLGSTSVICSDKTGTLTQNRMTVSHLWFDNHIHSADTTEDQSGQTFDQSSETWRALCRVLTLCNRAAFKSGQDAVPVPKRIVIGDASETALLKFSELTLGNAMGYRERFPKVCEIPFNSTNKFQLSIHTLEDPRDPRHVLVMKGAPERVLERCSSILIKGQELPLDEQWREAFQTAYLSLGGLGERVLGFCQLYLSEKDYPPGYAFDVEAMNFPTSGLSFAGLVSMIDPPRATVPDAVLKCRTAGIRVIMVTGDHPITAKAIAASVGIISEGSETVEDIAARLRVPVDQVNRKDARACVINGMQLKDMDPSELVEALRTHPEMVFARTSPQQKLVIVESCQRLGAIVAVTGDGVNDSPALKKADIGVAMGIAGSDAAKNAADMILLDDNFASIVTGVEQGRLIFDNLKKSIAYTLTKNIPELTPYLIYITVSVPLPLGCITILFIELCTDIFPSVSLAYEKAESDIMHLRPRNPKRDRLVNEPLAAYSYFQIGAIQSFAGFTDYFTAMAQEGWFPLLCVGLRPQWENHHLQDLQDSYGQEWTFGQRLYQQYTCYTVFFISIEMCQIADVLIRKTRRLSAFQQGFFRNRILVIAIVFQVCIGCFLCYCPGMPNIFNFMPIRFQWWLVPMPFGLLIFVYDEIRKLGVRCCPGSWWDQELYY
T1 sequence (P18434 whole entry partner): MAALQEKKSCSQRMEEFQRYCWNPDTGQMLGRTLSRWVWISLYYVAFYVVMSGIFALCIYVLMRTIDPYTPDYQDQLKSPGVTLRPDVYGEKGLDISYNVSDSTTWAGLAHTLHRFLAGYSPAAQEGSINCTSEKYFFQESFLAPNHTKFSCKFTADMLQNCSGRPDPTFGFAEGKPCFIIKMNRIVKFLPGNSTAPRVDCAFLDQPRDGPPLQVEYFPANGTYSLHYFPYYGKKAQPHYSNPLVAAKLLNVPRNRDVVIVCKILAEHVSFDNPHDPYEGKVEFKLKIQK
Procedure: Prepared from the fundic-glands of a fresh mucous membrane of a pig stomach according to a modified method of Saccomani al. (see Biochem. and Biophys. Acta, 464; 313 (1977)). The compound of the present invention was incubated at various concentration in a 40 mM Tris-HCl buffer solution having a pH of 7.40 together with H^+ -K^+ ATPase and 10 μg/ml of a protein at 37° C. for 30 minutes, followed by the addition of 15 mM KCl. After 10 minutes, the ATPase reaction was initiated by the addition of 3 mM of MgCl2 and ATP. After 10 minutes, the amount of the released inorganic phosphoric acid was determined according to the method of Yoda and Hokin (see Biochem. Biophys. Res. Com., 40, 880 (1970)). The test compound was used as a solution in methanol. The inhibitory effect was determined by subtracting the amount of the released inorganic acid observed with respect to the case wherein a solution of a test compound was added from that with respect to the control wherein only a solvent was added to determine a difference and dividing this difference by the latter amount and shown by percentage.

[1] = system: pentagastrin-stimulated gastric acid secretion; assay: Pentagastrin-stimulated gastric acid secretion and its recovery in chronic gastric fistula dogs; assay type: in vivo, dog; conditions: for Time required for the acid secretion to recover: 4 mg per kg intraduodenal; for Gastric acid secretion, percent of the control response, 1 hr: 1 hr after 4 mg per kg intraduodenal; for Gastric acid secretion, percent of the control response, 24 hr: 24 hr after 4 mg per kg intraduodenal; for Gastric acid secretion, percent of the control response, 48 hr: 48 hr after 4 mg per kg intraduodenal; for Inhibition of pentagastrin-stimulated gastric acid secretion (in words): within one hour from intraduodenal administration, 4 mg per kg
Procedure: Chronic gastric fistula dogs were used. The test compound was intraduodenally administered to each dog in an amount of 4 mg per kg. In 1, 24, 48 and 72 hours, respectively, from the time of administration, pentagastrin (6 micron grams per kg) was injected intramuscularly into the dog. Gastric acid secretion, determined and recovery thereof, was determined in terms of percent of the control response.

[2] = system: histamine-stimulated gastric acid secretion; assay: Inhibitory effect on histamine-stimulated gastric acid secretion of chronic gastric fistula dogs; assay type: in vivo, dog; conditions: for ED50: Canis lupus familiaris, 1 h, intraduodenal, histamine-stimulated, read-out: ID 50, calculated from the dose-inhibition curve
Procedure: Chronic gastric fistula dogs were used. Gastric acid secretion of each dog was stimulated by infusing 100 micron grams per kg per hour of histamine. After one hour of histamine infusion, each of the test compounds was administered intraduodenally to each dog, and after one hour of administration, the amount of gastric acid secretion of each test dog was determined. Results wore compared with the control group to which no test compound had been administered and are expressed in terms of percent inhibition.

[3] = Toxicological influence, oral, one week, beagle dogs; assay type: in vivo; conditions: 10 mg/kg per day for one week
[4] = Toxicological influence, oral, one week, rats; assay type: in vivo; conditions: rats (printed rate), 50 mg/kg per day for one week

Structure (SMILES): COc1ccc2[nH]c([S+]([O-])Cc3ncc(C)c(OC)c3C)nc2c1 (stereo not drawn) [Omeprazole, reference compound]
Time required for the acid secretion to recover ([1]; pentagastrin): 72 h
Gastric acid secretion, percent of the control response, 1 hr ([1]; pentagastrin): 0.3%
Gastric acid secretion, percent of the control response, 24 hr ([1]; pentagastrin): 32.3%
Gastric acid secretion, percent of the control response, 48 hr ([1]; pentagastrin): 69.1%
Gastric acid secretion, percent of the control response, 72 hr ([1]; 72 hr after 4 mg per kg intraduodenal, pentagastrin): 108.4%
Inhibition of pentagastrin-stimulated gastric acid secretion (in words) [1]: completely inhibited
% Inhibition of acid output ([2]; 62.5 μg/Kg intraduodenal): 41.1%
% Inhibition of acid output ([2]; 125 μg/Kg intraduodenal): 48.6%
% Inhibition of acid output ([2]; 250 μg/Kg intraduodenal): 62.1%
% Inhibition of acid output ([2]; 500 μg/Kg intraduodenal): 91.2%
% Inhibition of acid output ([2]; 1000 μg/Kg intraduodenal): 100.0%
ED50 [2]: 0.112 mg/kg

Structure (SMILES): Cc1c(OCCOCc2ccccc2)ccnc1C[S+]([O-])c1nc2cc(C(F)(F)F)ccc2[nH]1 (stereo not drawn) [Compound 3]
IC50 (H^+ -K^+ ATPase): 1000 nM

Structure (SMILES): COc1ccc2[nH]c([S+]([O-])Cc3nccc(OCCO)c3C)nc2c1 (stereo not drawn) [Compound 17]
IC50 (H^+ -K^+ ATPase): 3500 nM

Structure (SMILES): Cc1c(OCCN2CCCC2=O)ccnc1C[S+]([O-])c1nc2cc(C(F)(F)F)ccc2[nH]1 (stereo not drawn) [Compound 16]
IC50 (H^+ -K^+ ATPase): 1700 nM

Structure (SMILES): Cc1c(OCCOCCOCc2ccccc2)ccnc1C[S+]([O-])c1nc2cc(C(F)(F)F)ccc2[nH]1 (stereo not drawn) [Compound 13]
IC50 (H^+ -K^+ ATPase): 630 nM

Structure (SMILES): Cc1c(OCCN2C(=O)CCC2=O)ccnc1C[S+]([O-])c1nc2cc(C(F)(F)F)ccc2[nH]1 (stereo not drawn) [Compound 15]
IC50 (H^+ -K^+ ATPase): 72 nM

Structure (SMILES): COc1ccc2[nH]c([S+]([O-])Cc3nccc(OCCN4CCCC4=O)c3C)nc2c1 (stereo not drawn) [Compound 9]
IC50 (H^+ -K^+ ATPase): 13000 nM

Structure (SMILES): COc1ccc2[nH]c([S+]([O-])Cc3nccc(OCCN4C(=O)CCC4=O)c3C)nc2c1 (stereo not drawn) [Compound 14]
IC50 (H^+ -K^+ ATPase): 10000 nM

Structure (SMILES): COc1ccc2[nH]c([S+]([O-])Cc3nccc(OCCOCCOCc4ccccc4)c3C)nc2c1 (stereo not drawn) [Compound 11]
IC50 (H^+ -K^+ ATPase): 4200 nM

Structure (SMILES): Cc1c(OCCOCCOCc2ccccc2)ccnc1C[S+]([O-])c1nc2ccccc2[nH]1 (stereo not drawn) [Compound 12]
IC50 (H^+ -K^+ ATPase): 2600 nM

Structure (SMILES): COCCCOc1ccnc(C[S+]([O-])c2nc3ccccc3[nH]2)c1C (stereo not drawn) [Compound 19, Sodium Salt of 2-[{4-(3-Methoxypropoxy)-3-Methylpyridine-2-Yl}Methylsulfinyl]-1H-Benzimidazole]
Toxicological influence [3]: No toxicological influence has been observed
Time required for the acid secretion to recover ([1]; pentagastrin): 48 h
Gastric acid secretion, percent of the control response, 1 hr ([1]; pentagastrin): 0%
Gastric acid secretion, percent of the control response, 24 hr ([1]; pentagastrin): 61.9%
Gastric acid secretion, percent of the control response, 48 hr ([1]; pentagastrin): 121.5%
Recovery of gastric acid secretion (in words) ([1]; dog, in vivo): excellent gastric acid secretion recovery
Inhibition of pentagastrin-stimulated gastric acid secretion (in words) [1]: completely inhibited
Toxicological influence [4]: No toxicological influence has been observed
Inhibitory effect on the activity of H^+ -K^+ ATPase (in words) (H^+ -K^+ ATPase): significant inhibitory effect
IC50 (H^+ -K^+ ATPase): 1700 nM
% Inhibition of acid output ([2]; 31.25 μg/Kg intraduodenal): 34.4%
% Inhibition of acid output ([2]; 62.5 μg/Kg intraduodenal): 50.1%
% Inhibition of acid output ([2]; 125 μg/Kg intraduodenal): 67.7%
% Inhibition of acid output ([2]; 250 μg/Kg intraduodenal): 87.4%
% Inhibition of acid output ([2]; 500 μg/Kg intraduodenal): 100.0%
ED50 [2]: 0.0599 mg/kg
Potency compared with Omeprazole, inhibition of gastric acid secretion ([2]; versus Omeprazole): two times more potent; also recorded: more potent inhibitory activity on gastric acid secretion as compared with Omeprazole

Structure (SMILES): COCCOCCOc1ccnc(C[S+]([O-])c2nc3cc(C(F)(F)F)ccc3[nH]2)c1C (stereo not drawn) [Compound 6]
IC50 (H^+ -K^+ ATPase): 550 nM

Structure (SMILES): COc1ccc2[nH]c([S+]([O-])Cc3nccc(OCCOCc4ccccc4)c3C)nc2c1 (stereo not drawn) [Compound 2]
IC50 (H^+ -K^+ ATPase): 1400 nM

Structure (SMILES): COCCOCCOc1ccnc(C[S+]([O-])c2nc3cc(OC)ccc3[nH]2)c1C (stereo not drawn) [Compound 7]
IC50 (H^+ -K^+ ATPase): 1700 nM

Further lines, results first:

IC50 (H^+ -K^+ ATPase): 2400 nM
Structure (SMILES): Cc1c(OCCN2CCCC2=O)ccnc1C[S+]([O-])c1nc2ccccc2[nH]1 (stereo not drawn) [Compound 5]

IC50 (H^+ -K^+ ATPase): 3300 nM
Structure (SMILES): COCCOCCOc1ccnc(C[S+]([O-])c2nc3ccccc3[nH]2)c1C (stereo not drawn) [Compound 18]

IC50 (H^+ -K^+ ATPase): 11000 nM
Structure (SMILES): Cc1c(OCCN2C(=O)CCC2=O)ccnc1C[S+]([O-])c1nc2ccccc2[nH]1 (stereo not drawn) [Compound 4]

IC50 (H^+ -K^+ ATPase): 1400 nM
Structure (SMILES): Cc1c(OCCOCCCl)ccnc1C[S+]([O-])c1nc2ccccc2[nH]1 (stereo not drawn) [Compound 23]

IC50 (H^+ -K^+ ATPase): 2300 nM
Structure (SMILES): CSCCOc1ccnc(C[S+]([O-])c2nc3ccccc3[nH]2)c1C (stereo not drawn) [Compound 20]

IC50 (H^+ -K^+ ATPase): 1200 nM
Structure (SMILES): Cc1c(OCCOCc2ccccn2)ccnc1C[S+]([O-])c1nc2ccccc2[nH]1 (stereo not drawn) [Compound 8]

IC50 (H^+ -K^+ ATPase): 1300 nM
Structure (SMILES): Cc1c(OCCOc2ccccc2)ccnc1C[S+]([O-])c1nc2ccccc2[nH]1 (stereo not drawn) [Compound 21]

IC50 (H^+ -K^+ ATPase): 920 nM
Structure (SMILES): Cc1c(OCCOCc2ccccc2)ccnc1C[S+]([O-])c1nc2ccccc2[nH]1 (stereo not drawn) [Compound 1]

IC50 (H^+ -K^+ ATPase): 1900 nM
Structure (SMILES): Cc1c(OCCCO)ccnc1C[S+]([O-])c1nc2ccccc2[nH]1 (stereo not drawn) [Compound 22]

IC50 (H^+ -K^+ ATPase): 1900 nM
Structure (SMILES): Cc1c(OCCO)ccnc1C[S+]([O-])c1nc2ccccc2[nH]1 (stereo not drawn) [Compound 10]
